{
  "source": "patent US8518953B2",
  "about": "“Aminopyrimidines useful as inhibitors of protein kinases” (Vertex Pharmaceuticals Incorporated, priority 2007, dated 2013)",
  "key": {"GSK3β TYR 216": {"molecular_target": "T1, GSK3β TYR 216 (Homo sapiens, UniProt P49841)", "T1 construct": "western blotting of Jurkat cells dosed with the compounds; endogenous in cells; host or cells: Jurkat cells", "T1 sequence (P49841 whole entry)": "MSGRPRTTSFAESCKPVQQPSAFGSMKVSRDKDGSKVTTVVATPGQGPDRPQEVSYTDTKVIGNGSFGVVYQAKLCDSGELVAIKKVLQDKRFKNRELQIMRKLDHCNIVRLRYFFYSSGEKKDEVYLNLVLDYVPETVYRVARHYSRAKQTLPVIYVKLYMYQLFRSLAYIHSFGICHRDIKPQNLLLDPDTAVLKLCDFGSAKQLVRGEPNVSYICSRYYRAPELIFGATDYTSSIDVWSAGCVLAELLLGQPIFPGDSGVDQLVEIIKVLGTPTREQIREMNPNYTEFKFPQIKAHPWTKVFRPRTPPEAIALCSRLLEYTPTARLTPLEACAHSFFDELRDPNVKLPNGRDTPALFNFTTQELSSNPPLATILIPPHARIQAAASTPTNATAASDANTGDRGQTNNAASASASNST", "assay": "GSK3β p-TYR Inhibition Assay (western blotting of Jurkat cells)", "format": "cell-based", "conditions": "western blot, read-out: GSK3b pTYR 216: IC50", "method": "Compounds are screened for their ability to inhibit the phosphorylation of tyrosine (TYR) residues through the use of western blotting of Jurkat cells dosed with the compounds. The phosphorylation of the specific TYR residues tested are GSK3α TYR 279 and GSK3β TYR 216.\nJurkat cells are seeded at a density of 2×10^5 cells/well in a 12 well dish in starvation media (RPMI+1% FBS+P/S). Following starvation for 16 hours, the compound is dosed into each well at a final DMSO concentration of 0.3% and cells are incubated o/n at 37° C. 5% CO2. The next day, cells are spun down at 1500 rpm, washed with PBS, and lysed in 100 uL Laemli sample buffer with β-mercaptoethanol.\n15 microliters (uL) of cell lysates are loaded onto a 10% tris-glycine gel and run at 120 v for 2 hours or until dye front runs off of the gel. The protein is then transferred onto a PVDF membrane at 100 v for 60 min. PBST (PBS containing 0.1% Tween 20, such as 1 ml Tween per 1 L of PBS) is then made up and used for all washes and antibody incubations. The blot is blocked in 5% nonfat milk PBST for one hour.\nThe primary antibody (GSK-3α/β pTYR 279/216 at 1:1000 dilution Upstate cat#05-413) is then added in […] PBST overnight at 4° C. with gentle rocking. The blot is then washed in PBST for 5 min. This is then repeated 4 times. […]"}, "rats subjected to MCAO": {"tested_on": "rats subjected to MCAO", "assay": "Post Stroke Recovery MCAO Model: Forelimb Inhibition (Swimming Test)", "format": "in vivo, rat", "conditions": "7 and 14 days after stroke", "source_text": "Adult male Wistar rats are pre-trained on a battery of behavioral tests including: tray reach, […], forelimb asymmetry (cylinder bracing), forelimb inhibition (swim test) (see below for detailed description of tests). Following pre-stroke behavioral assessment the rats receive surgery during which a stroke is induced. The rats are pseudo-randomly divided into 5 equal groups (n=12) ensuring an equal number of right and left strokes within each treatment group. The first group receives sham surgery with vehicle as treatment. Administration of the test compound and vehicle (dose, route, timing) is determined by the sponsor. The core body temperature is maintained at 37° C. (+/-1°). Following surgery all animals are behaviorally assessed 1, 7, and 14 d post-stroke. At the conclusion of behavioral assessment all rats undergo an MRI to determine infarct volume. Group behavioral performance and stroke volume are compared between groups using one way analysis of variance to determine therapeutic benefit of the compound in rate and extent of recovery of function following MCAO stroke. […] Rectal temperature is monitored and maintained at 37 C+/-1° C. for the duration of the surgery and until the rat is awake and mobile (approximately 3 hr). […] Inhibition of the forelimbs is assessed by filming animals during swimming. […] Only the mid 80% of the length is scored. […]"}},
  "data": [
    {"molecule": "Cc1nc(-c2ccccc2Cl)nc(Nc2n[nH]c3ncc(F)cc23)c1C", "note": "[Compound I-1, N-(2-(2-chlorophenyl)-5,6-dimethylpyrimidin-4-yl)-5-fluoro-1H-pyrazolo[3,4-b]pyridin-3-amine]", "values": [
      {"measurement": "IC50", "setting": "GSK3β TYR 216", "result": 3, "unit": "nM"},
      {"measurement": "deficit in forelimb inhibition (swimming test)", "setting": "rats subjected to MCAO", "result": "significantly ameliorated this deficit"}
    ]}
  ]
}
